Source: a melting point compilation (Tetko et al.; mined from patent text by program, amines drawn as free bases though some values may be those of a salt)

| SMILES | melting point [°C] |
| --- | --- |
| Nc1nc(NCCc2ccc(C=CC3CCCCC3)cc2)nc2c1ncn2C1OC(CO)C(O)C1O (stereo not drawn) | 161 to 164 |
| Cc1cc(C(=O)N2Cc3ccc(C(=O)NCc4cccnc4)n3Cc3ccccc32)ccc1I | 176 to 177 |
| CCCc1cc(Cl)c2oc(Cc3ccc(OC(C)=O)cc3)c(C)c2c1OC(C)=O | 119 to 120 |
| Cc1cc(N)nc(CCc2nc3cc(-c4ccccc4)cnc3[nH]2)c1 | 230 |
| Cc1ncc(CN2CCc3cc(-c4ccccc4)ccc3C2)c(N)n1 | 186 to 188 |
| CC(=O)c1ccc2nc3n(c2c1)CCC(=O)N3 | > 320 |
| NS(=O)(=O)c1nnc(NC(=O)CNC(=O)OCc2ccccc2)s1 | 199 to 201 |
| C[C@H](NC(=O)OC(C)(C)C)C(=O)NCc1cccc(Nc2n[nH]c3ncnc(Nc4cccc(Cl)c4)c23)c1 | 150 to 153 |
| N#Cc1ccc(-c2ccc(-c3nc4cc(C#N)ccc4[nH]3)cc2)nc1 | 346 to 347 |
| CN1C(=O)N(CCN2C(=O)N(C)C(O)C2O)C(O)C1O (stereo not drawn) | 158 to 161 |
| Cc1cccc(NC(=O)NCC(=O)N(CC(=O)Nc2ccc3c(c2)CCC3)c2ccccc2)c1 | 210 |
| C=CCN1CCC23CCCCC2C1Cc1ccc(O)cc13 (stereo not drawn) | 197 to 198 |
| COc1ccc2cc(C=C(C)C(=O)NCCN(O)C(N)=O)ccc2c1 | 174 to 176 |
| COc1ccc(-c2nc(-c3ccc(OS(=O)(=O)O)cc3)cs2)cc1OC | 248 to 249 |
| COC(=O)c1ccc(-c2ccc3c(c2)CCN(C2CCN(C4CCC4)C2)C3=O)c(F)c1 (stereo not drawn) | 75 |
| Cc1oc(-c2ccccc2)nc1CCOc1ccc(C[C@H](Nc2ccccc2C(=O)c2ccccc2)C(=O)O)cc1 | 85 to 90 |
| c1ccc(CN2CCN(c3nc4nccc(-c5cccnc5)n4n3)CC2)cc1 | 149 to 150 |
| Cc1nc(-n2cnn(CC3CC3(F)F)c2=O)sc1C(=O)O (stereo not drawn) | 220 to 222 |
| CC(C)c1ccc(C(=O)CC(c2ccccc2)c2ccccc2)c(C(C)C)c1OS(N)(=O)=O | 149 to 152 |
| COCc1cnc2nc(N)nc(N)c2n1 | 248 to 251 |
| COc1cc2c(=O)n(CCN3CCN(C)CC3)c3c4cc5c(cc4ncc3c2cc1OC)OCO5 | 244 to 246 |
| CCCCCCCCCCCCCCCCOC(=O)c1ccc(-c2ncc[nH]2)nc1 | 97 to 98 |
| Cc1ccc(S(N)(=O)=O)cc1NC(=O)c1cnn2c(C(F)F)cc(-c3ccc(C(F)(F)F)cc3)nc12 | 293 |
| CCn1c2ccccc2c2cc(C=Cc3ccc([N+](=O)[O-])cc3)ccc21 | 168 |
| CC(C)(C)c1cccc(C(C)(C)C)c1OS(C)(=O)=O | 83 |

| SMILES | melting point [°C] |
| --- | --- |
| CN1CC[C@@H]2CC(=O)c3cccc(F)c3[C@@H]2C1 (relative stereo) | > 220 |
| Cc1c(NC(=O)c2ccc(-c3ccc(F)cc3)cc2)ccc2cc(CN3CCC(c4ccccc4)CC3)cnc12 | 171 to 172 |
| CCOCc1nc2c(N)nc(C)cc2n1CC(C)C | 72 to 74 |
| CN1C[C@@H]2CN(c3ccc4nc(Br)cn4n3)C[C@@H]2C1 | 144 to 146 |
| CC(=O)CC(=O)N=C1SCCN1C | 43 to 45 |
| Cc1c(C(=O)c2ccc(Cl)cc2)oc2cccc(O)c12 | 238 to 241 |
| CS(=O)(=O)c1ccc(-c2cnn(CC(F)(F)F)c(=O)c2Nc2cc(F)cc(F)c2F)cc1 | 190 to 194 |
| Cc1csc(C2=NOCCO2)c1S(N)(=O)=O | 155 |
| c1coc(-c2nc3nsnc3nc2-c2ccncn2)c1 | 233 to 235 |
| CS(=O)(=O)c1ccc(/C(=C2\CCSC2=O)c2ccc(Cl)cc2)cc1 | 183 |
| Nc1cccnc1Nc1ccccc1C(=O)c1ccccc1 | 91 to 93 |
| CNc1c(CCO)cc(N)c([N+](=O)[O-])c1CCO | 99 |
| Cc1ccc(C2CCN(C[C@H](O)COc3cccc4oc(S(=O)(=O)N(C)C)cc34)CC2)cc1C | 146 to 148 |
| O=C1CCCCCCCCCCC(=O)OCCC1 | 33 |
| COC(=O)N(C)C1CN(C(=O)Nc2ccc(OC(F)(F)F)cc2)N=C1c1ccc(O)cc1 (stereo not drawn) | 228 to 233 |
| CSc1ccc(-c2nn(Cc3ccc(Cl)cc3Cl)c(=O)cc2-c2ccc(Cl)cc2)cc1 | 154 to 155 |
| Cc1nnsc1C(=O)Nc1ccc(-n2nc(C(F)(F)F)cc2C)cc1 | 51 to 53 |
| O=S(=O)(Nc1onc2c1CCC2)c1ccccc1 | 132 |
| CCOc1cc(O)c(C(=O)C=Cc2ccc(OC)cc2)c(OC)c1 | 122 |
| CCC(=O)OCC(=O)Nc1nc2ccc(OC)cc2s1 | 145 to 147 |
| CC(=O)Nc1cc(Cl)c(C)cc1Br | 154 to 155 |
| O=C(O)C1CC1(C(=O)O)c1cccc([N+](=O)[O-])c1 (stereo not drawn) | 167 to 170 |
| CC(C)NC(=O)OCC(=O)c1ccccc1F | 70 to 74 |
| COC(=O)c1cc(N)c(N)cc1OC | > 300 |
| Cc1ccc(S(=O)(=O)NC(=O)OCCc2ccc(-n3c(CCCN4CCCC4=O)nc4cc(C(F)(F)F)c(Cl)cc43)cc2)cc1 | 85 to 90 |

| SMILES | melting point [°C] |
| --- | --- |
| O=C(c1ccc(Br)cc1)C1CCN(CCc2c[nH]c3ccccc23)CC1 | 178 to 180 |
| O=c1c2ccc(O)cc2[nH]c2c([N+](=O)[O-])ccc(Cl)c12 | 292 to 294 |
| CCCOc1c(OC)cc(C=O)cc1SC | 64 to 66 |
| CCNS(=O)(=O)c1cccc(OCc2nc3ccccc3n2C)c1 | 169 to 173 |
| CN(C)C(=O)OCc1nc([N+](=O)[O-])c(C#N)n1C | 85 to 88 |
| CNc1nc(-c2ccccc2)c(-c2nc3ccccc3c(=O)n2-c2ccccc2)s1 | 224 to 225 |
| O=c1c(-c2ccccc2)c(Cn2cnc3ccccc32)oc2ccccc12 | 186 to 191 |
| c1ccc(-c2ccc3nc(COc4ccc(CCCn5ccnc5)cc4)cn3c2)cc1 | 106 to 107 |
| CCC1OC(=O)N(CCc2ccc(NC(=O)c3sc(C)nc3C)cc2)N=C1c1ccc(OC)c(OC)c1 (stereo not drawn) | 217 |
| Cc1ccc2ccccc2c1N(C(=O)CCl)C1COC(=O)C1 (stereo not drawn) | 121 to 122 |
| O=C(O)c1ncn2c1c(=O)[nH]c1ccccc12 | > 300 |
| Cc1cc(-n2nc(C(F)(F)F)cc2-c2ccc(-c3cscn3)cc2)ccc1S(C)(=O)=O | 147 to 149 |
| COCc1cccc(C=O)c1NC(=O)CC1c2ccccc2Oc2ccccc21 | 202 to 203 |
| FC(F)(F)c1n[nH]c2ccc(Br)cc12 | 168 to 169 |
| CN(C(=O)c1cnn(C)c1C(=O)Nc1ccn2nc(N3CCOCC3)nc2c1)C1CC1 | 172 to 175 |
| CCOC(=O)Cc1ccc(NC(=O)C(NS(=O)(=O)c2ccc(Cl)cc2)C(C)C)cc1 (racemic) | 100 to 102 |
| CC(=O)C(C(C)=O)C(=O)NS(=O)(=O)c1ccc(C)cc1 | 137 to 140 |
| O=c1[nH]c2c([nH]c1=O)C1=C(CCC(n3cccc3)=C1)CC2 | > 250 |
| CCc1ccc(CC(C)(C)NC(C)=O)cc1 | 90 to 92 |
| Nc1nc2cccnc2c2c1nc(CO)n2CC1(O)CCC1 | 244 to 246 |
| O=C(Nc1ccc2ccc(-c3ccccc3)nc2n1)c1cccc(Cl)c1 | 175 |
| COc1cc2c(c3c1OC(C)(C)C3)C(c1cccc(-c3ccc(N)cc3)c1)=NCC2(C)C | 232 to 234 |
| COc1cc(CCNC(=S)Nc2nccs2)ccc1OC(C)C | 140 to 141 |
| CCCCN(CCCC)c1ccc(C=Cc2cc(C)c(C=CC3=C(C#N)C(=C(C#N)C#N)OC3(C)C)cc2C)c(OC)c1 | 242 to 244 |
| Fc1ccc2c(C3=CCC4(CC3)OCCO4)c[nH]c2c1 | 196 to 197 |

| SMILES | melting point [°C] |
| --- | --- |
| N#Cc1ccc(N(Cc2ccc(O)c(Br)c2)n2cnnc2)cc1-c1ccccc1 | 218 to 220 |
| O=C1CCCOc2ccc(OCc3ccccc3)cc21 | 62 to 63 |
| COc1cc(Cl)c(N)cc1C(=O)N[C@H]1CCNC[C@H]1OC (relative stereo) | 192 |
| c1ccc(CSc2cnccc2C2=NOCCO2)cc1 | 110 to 112 |
| Cc1ccc(CC2CCN(C(=O)CNc3ccc(NS(C)(=O)=O)cc3)CC2)cc1 | 133 to 135 |
| CC(=O)SCC(Cc1ccccc1)C(=O)Nc1cc(C(=O)O)cc(C(C)C)c1 (stereo not drawn) | 205 to 206 |
| COCc1ccc(C(=O)NCC#N)cc1 | 107 to 108 |
| COc1ccc(NC(=O)c2csc(Br)c2OC)cc1N1CCN(C)CC1 | 120 to 122 |
| COc1cc2c(cc1-c1c(C)nn(C)c1C)-c1c(-c3cccs3)c3c(n1CC2)C(=O)N(C(C)C)CCN(C(=O)CCC(F)(F)F)C3 | 256 to 258 |
| CSc1cccc(Nc2nc(OCC3CCCCC3)c3[nH]cnc3n2)c1 | 190 to 192 |
| NC(=O)N(O)CC#Cc1cccc(C2=N[C@H](c3ccc(F)cc3)CO2)c1 | 181 |
| CCCCC1(C(F)(F)F)NC(=O)Nc2ccc(F)cc21 (racemic) | 198 |
| CS(=O)(=O)c1ccc(-c2cnn(-c3ccc(F)c(F)c3)c(=O)c2Cc2cccc(F)c2)cc1 | 161 to 163 |
| CCN1C(=O)C(F)N=C(c2ccccc2)c2cc(Cl)ccc21 (stereo not drawn) | 156 to 158 |
| O=C1Cc2ccc([N+](=O)[O-])cc21 | 126 to 127 |
| CS(=O)c1cncc(-c2nc(=O)c3ccccc3s2)n1 (stereo not drawn) | 228 to 230 |
| COc1ccccc1-c1n[nH]c(-c2ccccc2C)n1 | 160 to 161 |
| COc1cc(OC)cc(-c2ncoc2-c2cc(N)c(OC)cc2O)c1 | 122 to 123 |
| O=C1CCn2nc(-c3ccc(F)cc3)c(-c3ccncc3)c2N1 | > 250 |
| CCN(CC)CCOc1ccc(Nc2ncc3c(n2)N(C)C(=O)N(c2c(C)cccc2C)C3)cc1 | 58 |
| OCCNc1ccnc2cc3c(cc12)OCO3 | 233 to 234 |
| C=CCOc1cc(N2C(=O)C3=C(CCCC3)C2=O)ccc1Cl | 118 to 120 |
| CCCN(Cc1ccc(-c2ccccc2-c2nnnn2C(c2ccccc2)(c2ccccc2)c2ccccc2)cc1)c1nc(C)nnc1C(=O)OCC | 178 to 179 |
